Test results published in ChEMBL document CHEMBL1147472, “Design, synthesis, and evaluation of a new class of noncyclic 1,3-dicarbonyl compounds as PPARalpha selective activators” (Bioorg Med Chem Lett, 2004).

How the values were obtained:
[1] = biological target: T1, Peroxisome proliferator-activated receptor gamma (Homo sapiens, UniProt P37231); experiment: In vitro transcription activation on human peroxisome proliferator activated receptor-gamma (PPAR gamma)
T1 sequence (P37231 whole entry): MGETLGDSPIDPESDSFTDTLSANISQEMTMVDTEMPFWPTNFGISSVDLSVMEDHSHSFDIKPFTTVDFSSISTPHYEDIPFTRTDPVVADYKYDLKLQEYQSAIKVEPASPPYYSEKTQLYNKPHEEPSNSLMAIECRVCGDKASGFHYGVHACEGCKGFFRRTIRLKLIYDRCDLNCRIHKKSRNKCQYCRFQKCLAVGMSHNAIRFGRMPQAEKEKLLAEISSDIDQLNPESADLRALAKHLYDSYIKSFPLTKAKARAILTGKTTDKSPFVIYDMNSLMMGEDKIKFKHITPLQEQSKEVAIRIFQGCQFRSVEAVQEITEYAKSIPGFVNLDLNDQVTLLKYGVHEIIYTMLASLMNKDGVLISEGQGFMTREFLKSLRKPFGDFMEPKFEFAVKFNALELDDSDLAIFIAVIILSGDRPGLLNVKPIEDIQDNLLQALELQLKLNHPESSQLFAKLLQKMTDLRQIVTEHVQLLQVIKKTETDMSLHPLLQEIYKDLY

[2] = biological target: T2, Peroxisome proliferator-activated receptor delta (Homo sapiens, UniProt Q03181); experiment: In vitro transcription activation on human peroxisome proliferator activated receptor-delta (PPAR delta)
T2 sequence (Q03181 whole entry): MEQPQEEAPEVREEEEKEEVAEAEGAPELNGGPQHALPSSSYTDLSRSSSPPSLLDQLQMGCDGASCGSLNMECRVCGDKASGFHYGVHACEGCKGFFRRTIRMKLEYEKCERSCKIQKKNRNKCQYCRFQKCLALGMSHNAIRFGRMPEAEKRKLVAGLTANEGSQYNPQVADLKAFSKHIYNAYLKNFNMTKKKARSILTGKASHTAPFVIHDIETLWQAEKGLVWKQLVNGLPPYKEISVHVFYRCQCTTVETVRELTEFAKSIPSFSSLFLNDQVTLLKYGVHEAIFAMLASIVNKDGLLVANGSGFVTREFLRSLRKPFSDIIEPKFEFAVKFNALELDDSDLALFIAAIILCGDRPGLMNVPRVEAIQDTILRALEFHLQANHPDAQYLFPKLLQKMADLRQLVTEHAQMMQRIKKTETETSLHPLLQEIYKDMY

[3] = biological target: T3, Peroxisome proliferator-activated receptor alpha (Homo sapiens) (UniProt Q07869); experiment: (§1) In vitro transcription activation on human peroxisome proliferator activated receptor-alpha (PPAR alpha)
T3 sequence (whole entry): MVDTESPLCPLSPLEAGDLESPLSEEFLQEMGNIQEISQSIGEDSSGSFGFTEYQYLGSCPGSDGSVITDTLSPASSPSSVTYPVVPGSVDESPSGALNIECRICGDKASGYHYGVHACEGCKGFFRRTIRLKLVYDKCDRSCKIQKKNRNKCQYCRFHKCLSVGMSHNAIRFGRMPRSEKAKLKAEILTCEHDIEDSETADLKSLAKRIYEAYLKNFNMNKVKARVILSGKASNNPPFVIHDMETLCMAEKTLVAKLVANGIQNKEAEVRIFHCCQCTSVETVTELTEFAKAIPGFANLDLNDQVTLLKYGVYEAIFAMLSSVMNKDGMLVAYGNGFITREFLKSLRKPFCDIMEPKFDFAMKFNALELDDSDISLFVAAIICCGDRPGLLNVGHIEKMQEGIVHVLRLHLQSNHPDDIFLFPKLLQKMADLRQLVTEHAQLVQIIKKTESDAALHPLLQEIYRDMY

[4] = system: Mus musculus; experiment: In vivo effect on blood glucose level in mice at a dose of 30 mg/kg by oral administration after two week; assay type: functional
[5] = biological target: T4, Peroxisome proliferator-activated receptor alpha (Homo sapiens, UniProt Q07869); experiment: as §1
T4 sequence (Q07869 whole entry): T3 sequence (whole entry)

[6] = biological target: T1, Peroxisome proliferator-activated receptor gamma
[7] = biological target: T4, Peroxisome proliferator-activated receptor alpha; experiment: In vitro transcription activation on human peroxisome proliferator activated receptor-alpha (PPAR alpha); Inactive
[8] = biological target: T2, Peroxisome proliferator-activated receptor delta; experiment: In vitro transcriptional activation by human peroxisome proliferator activated receptor-delta (PPAR delta; Inactive
[9] = biological target: T2, Peroxisome proliferator-activated receptor delta; experiment: In vitro transcription activation on human peroxisome proliferator activated receptor-delta (PPAR delta); Inactive
[10] = system: Mus musculus; experiment: In vivo effect on blood glucose level in mice at the dose of 5 mg/kg by oral administration after two week; assay type: functional
[11] = system: Mus musculus; experiment: In vivo effect on blood glucose level in mice at a dose of 20 mg/kg by oral administration after two week; assay type: functional
[12] = system: Mus musculus; experiment: In vivo effect on blood glucose level in mice at a dose of 10 mg/kg by oral administration after two week; assay type: functional

Structure (SMILES)	EC50 [1] [µM]	EC50 [2] [µM]	Max response [3] [%]	EC50 [5] [µM]	EC50 [7]	EC50 [9]	other results
COC(=O)C(Cc1ccc(OCCOc2ccc3c(c2)CCCC3)cc1)C(=O)OC	1.5	3.31	210	0.03	–	–	Reduction [4]: 38.15%
Cc1cccc(Nc2cc(Cl)nc(SCC(=O)O)n2)c1C [PIRINIXIC ACID]	–	–	100	–	–	–	EC50 [6]: Not Active
O=C(O)C(Cc1ccc(OCCOc2ccc3ccccc3c2)cc1)C(=O)O	–	–	–	–	Not Active	–	EC50 [6]: Not Active; EC50 [8]: Not Active
NC(=O)C(Cc1ccc(OCCOc2ccc3c(c2)NCCC3)cc1)C(=O)O (configuration not stated)	2.88	3.62	210	0.14	–	–	–
COC(=O)C(Cc1ccc(OCCOc2ccc3c(c2)C(C)(C)CCC3(C)C)cc1)C(=O)OC	0.15	–	–	–	Not Active	Not Active	–
COC(=O)C(Cc1ccc(OCCOc2ccc3c(c2)CCCC3)cc1)C(=O)O (configuration not stated)	0.69	2.45	–	–	Not Active	–	–
O=C(O)C(Cc1ccc(OCCOc2ccc3c(c2)NCCC3)cc1)C(=O)O	–	–	–	–	Not Active	Not Active	EC50 [6]: Not Active
CN(CCOc1ccc(CC2SC(=O)NC2=O)cc1)c1ccccn1 (configuration not stated) [ROSIGLITAZONE]	–	–	–	–	–	–	Reduction [10]: 62.96%
NC(=O)C(Cc1ccc(OCCOc2ccc3ccccc3c2)cc1)C(=O)O (configuration not stated)	3.02	2.63	213	0.25	–	–	Reduction [11]: 42.22%
Cc1oc(-c2ccccc2)nc1CCOc1ccc(CC2C(=O)NOC2=O)cc1 (configuration not stated) [REGLITAZAR]	–	–	–	–	–	Not Active	–
COC(=O)C(Cc1ccc(OCCOc2ccc3ccccc3c2)cc1)C(=O)O (configuration not stated)	1.12	1.05	264	0.044	–	–	–
COC(=O)C(Cc1ccc(OCCOc2ccc3c(c2)C(C)(C)CCC3(C)C)cc1)C(=O)O (configuration not stated)	0.09	–	–	–	Not Active	Not Active	–
COC(=O)C(Cc1ccc(OCCOc2ccc3c(c2)C(C)(C)CCC3(C)C)cc1)C(N)=O (configuration not stated)	0.83	–	–	–	Not Active	Not Active	–
COC(=O)C(Cc1ccc(OCCOc2ccc3c(c2)CCCC3)cc1)C(N)=O (configuration not stated)	3.43	–	–	–	Not Active	Not Active	–
COC(=O)C(Cc1ccc(OCCOc2ccc3ccccc3c2)cc1)C(=O)OC	0.53	1.27	264	0.07	–	–	Reduction [12]: 35.08%; Reduction [4]: 46.76%
COC(=O)C(Cc1ccc(OCCOc2ccc3c(c2)NCCC3)cc1)C(=O)O (configuration not stated)	3.8	3.09	207	0.09	–	–	–
CCCCCCCCCCCCCCC(Br)C(=O)O (configuration not stated)	–	3.72	–	–	–	–	–
O=C(O)C(Cc1ccc(OCCOc2ccc3c(c2)CCCC3)cc1)C(=O)O	2.11	4.68	–	–	Not Active	–	–
CC1(C)CCC(C)(C)c2cc(OCCOc3ccc(CC(C(N)=O)C(=O)O)cc3)ccc21 (configuration not stated)	–	–	–	–	Not Active	Not Active	EC50 [6]: Not Active
CC1(C)CCC(C)(C)c2cc(OCCOc3ccc(CC(C(=O)O)C(=O)O)cc3)ccc21	2.05	–	–	–	Not Active	Not Active	–
COC(=O)C(Cc1ccc(OCCOc2ccc3c(c2)NCCC3)cc1)C(=O)OC	3.16	3.16	215	0.17	–	–	–
